This assay concerns HIV-1 BaL. The assay can be described thus: Anti-HIV activity in PBMC, intracellular p24 by flow cytometry. It is filed as cell-based. Conditions: 7 days. The protocol: In the presence of various concentrations of the most bioactive compounds, 1×10^6 PBMCs previously stimulated with 8 μg/mL of PHA and 50UI/mL of IL-2 were treated for 1 h. […] After spinoculation, cells were washed twice with PBS 1x to remove free virions, and then, fresh medium supplemented with 20 UI/mL of IL-2, with or without the di-halogenated compounds derived from L-Tyrosine dilutions, was added. Cells were plated in 96-well culture plates and incubated for 7 days. […] In addition, antiviral activity was also assessed by measuring intracellular p24 in harvested cells. Briefly, cells were stained with fixable viability dye eFluor 506 (eBioscience, Leicestershire, UK), CD3 (UCHT1; Thermo Scientific, Wilmington, DE, USA), CD4 (RPA-T4; BD Biosciences, San Jose, CA, USA), and p24 PE (KC57; Beckman Coulter, Pasadena, CA, USA), as detailed in the manufacturer’s protocol. Later, cells were washed and resuspended in PBS, and the lecture was measured instead in the LS Fortessa cytometer (BD Biosciences, Franklin Lakes, NJ, USA). Data were analyzed using FlowJo version 10.5.3 (FlowJo, LLC, Ashland, OR, USA).

Experimental findings from PMC10605077, “In Vitro and In Silico Antiviral Activity of Di-Halogenated Compounds Derived from L-Tyrosine against Human Immunodeficiency Virus 1 (HIV-1)” (Current Issues in Molecular Biology, 2023) are described below.

Take `COc1c(Cl)cc(C[C@@H](C(=O)O)N(C)C)cc1Cl` [TODC-2M]: the inhibition – broadly, the percentage by which the read-out fell short of the control – at 18.75 µM (Human immunodeficiency virus 1, BAL, PBMC, 168 h, 18.75 μM, read-out: inhibition of HIV-1 BaL replication in PBMC, flow cytometry (intracellular p24)) is 50.6%. Besides, the inhibition at 75 µM (Human immunodeficiency virus 1, BAL, PBMC, 168 h, 75 μM, read-out: inhibition of HIV-1 BaL replication in PBMC, flow cytometry (intracellular p24)) turned out to be 69.6%. For the same molecule, the inhibition at 150 µM (Human immunodeficiency virus 1, BAL, PBMC, 168 h, 150 µM, read-out: inhibition of HIV-1 BaL replication in PBMC, flow cytometry (intracellular p24)) was more than 60%. The “inhibition of HIV-1 BaL replication in PBMC, flow cytometry (intracellular p24)” value (all concentrations) was “over 50%”.
